The subject of one assay is MDA-GSC 262. Briefly: Cell viability dose response (IC50), MDA-GSC 262. It counts as cell-based. The note with it: Homo sapiens, mean of three independent experiments. As to the method: (§1) MDA-GSCs were plated at 50,000 cells/well into 12-well plates at and allowed to grow for 5 days until neurospheres were formed. The cells were then treated with either TCP, GSK-LSD1, or RN-1 at various concentrations for 5 days. Next, the cells were collected and neurospheres were dissociated with Accutase (BioLegend; San Diego, CA). Cell viability was determined using a trypan dye exclusion assay and read with the Vi-Cell XR Cell Viability Analyzer (Beckman Coulter; Brea, CA). NHAs were plated at 50,000 cells/well into 12-well plates and allowed to adhere overnight. The following day, NHAs were treated with the LSD1 inhibitors. After 5 days, the cells were detached using TrypLE and assessed with the trypan blue dye exclusion assay.
(§2) The alamarBlue cell viability (Bio-Rad; Hercules, CA) was performed on the MDA-GSCs according to the manufacturer’s protocol. The cells were plated at 5,000 cell/well into a 96-well plate and allowed to grow for 5 days. After 5 days, the alamarBlue reagent was added and fluorescence was measured with the Synergy 2 (BioTek Instruments; Winooski, VT) plate reader according to the manufacturer’s protocol.

Another assay relates to MDA-GSC 20. The assay is described as follows: Cell viability dose response (IC50), MDA-GSC 20. It counts as cell-based. The conditions noted are these: Homo sapiens, mean of three independent experiments. As to the method: as §1, §2
Another assay deals with MDA-GSC 17. The assay is described as follows: Cell viability dose response (IC50), MDA-GSC 17. It counts as cell-based. The note with it: Homo sapiens, mean of three independent experiments. As to the method:
as §1, §2

In another assay the test system is MDA-GSC 6–27. Briefly: Cell viability dose response (IC50), MDA-GSC 6–27. It counts as cell-based. The note with it: Homo sapiens, mean of three independent experiments. The procedure: as §1, §2
A further assay relates to MDA-GSC 7–11. The assay is described as follows: Cell viability dose response (IC50), MDA-GSC 7–11. The note with it: Homo sapiens, mean of three independent experiments. It counts as cell-based. As to the method:
as §1, §2

The test system of the next assay is MDA-GSC 23. Briefly: Cell viability dose response (IC50), MDA-GSC 23. It is filed as cell-based. The conditions noted are these: Homo sapiens, mean of three independent experiments. The procedure: as §1, §2
The subject of another assay is MDA-GSC 7–2. Briefly: Cell viability dose response (IC50), MDA-GSC 7–2. It is filed as cell-based. The note with it: Homo sapiens, mean of three independent experiments. The procedure:
as §1, §2

A further assay has as its system MDA-GSC lines. The assay is described as follows: Cell proliferation of MDA-GSCs tracked over 5 days. It counts as cell-based, Human. The note with it: 400 μM, after 5 days; all MDA-GSC lines apart from MDA-GSC311. As to the method: as §2
Figure 3 Effects of GSK-LSD1 on GSCs cell proliferation and neurosphere formation. (A–I) Cell proliferation of MDA-GSCs was tracked over 5 days after treatment with GSK-LSD1 at 400 μM. Day five data was analyzed with a student’s t-test. ns = p > 0.05, *p ≤ 0.05, **p ≤ 0.01, ***p ≤ 0.001, ****p ≤ 0.0001. (J) Bar graphs showing the number of neurospheres formed by MDA-GSCs after treatment with GSK-LSD1. Grouped data was analyzed using a two-way ANOVA with the Šídák multiple comparisons test. ns = p > 0.05, ***p ≤ 0.001, ****p ≤ 0.0001.

Assay [1] has as its system MDA-GSC20 orthotopic xenograft. Briefly: Intracranial orthotopic xenograft model, bioluminescence tumor burden and survival. It counts as in vivo, athymic nude mice. As to the method: All animal experiments were approved by the University of Texas MD Anderson Cancer Center Institutional Animal Care and Use Committee (IACUC) under protocol 638 (P.I. Chandra). An equal number of male and female athymic nude mice aged 4–6 weeks old were bolted with guide screws by MD Anderson’s Brain Tumor Center Animal Core as previously described ([16]). Ketamine/xylazine was administered for anesthesia and buprenorphine or buprenorphine sustained-release (SR) was administered for analgesia during and after the surgery. MDA-GSC20 luciferase labelled cells were resuspended in PBS and 500,000 cells were intracranially implanted into each mouse via guide screw. To monitor tumor engraftment and tumor progression throughout treatment, each mouse was imaged weekly using an IVIS 200 imager (Perkin Elmer; Waltham, MA). Mice were anesthetized via inhalation of isoflurane and injected with 200 μL of D-Luciferin (GoldBio; St Louis, MO) subcutaneously. Bioluminescence signal in the mice was read and reported as photons/s.
Once confirmation of intracranial tumor engraftment at 7 days post-engraftment, the mice were equally randomized into groups to receive either GSK-LSD1 or the vehicle control. The mice received GSK-LSD1 1 mg/kg diluted in DMSO and PBS (5 and 95%, respectively) via intraperitoneal injection (200 μL/mouse) while the control mice received the untreated vehicle in parallel. In accordance with the approved IACUC protocol (No: 638-RN03) at MD Anderson Cancer Center, treatment continued until the mice succumbed to tumor burden and were found in a moribund condition as determined by neurological impairment (hydrocephalus, seizures, inactivity, and/or ataxia) or morbidity (hunched posture or weight loss). At this time mice were euthanized by both carbon dioxide exposure and cervical dislocation. […]

In a further assay the test system is MDA-GSC20. Briefly: qPCR of resistance-related genes, MDA-GSC20. It counts as cell-based, Human. The conditions noted are these: MDA-GSC20 (resistant). As to the method:
(§3) Total RNA was extracted using RNeasy Plus Mini Kit (Qiagen; Hilden, Germany) following the manufacturer’s protocol. cDNA was synthesized with the iScript cDNA synthesis kit (Bio-Rad; Hercules, CA), qPCR was performed using Forget-Me-Not EvaGreen qPCR kit (Biotium; Fremont, CA), and samples were analyzed with the LightCycler96 (Roche; Basel, Switzerland). Cq values were normalized to PPIA and reported as relative fold change from untreated control.
Background: Real-time PCR tracks product formation cycle by cycle.

A further assay relates to MDA-GSC7-2. Briefly: qPCR of resistance-related genes, MDA-GSC7-2. The conditions noted are these: MDA-GSC7-2 (sensitive). It is filed as cell-based, Human. As to the method:
as §3

Another assay deals with MDA-GSC8-11. The assay is described as follows: qPCR of resistance-related genes, MDA-GSC8-11. It counts as cell-based, Human. The note with it: MDA-GSC8-11 (resistant). The procedure:
as §3

A further assay concerns MDA-GSC17. The assay is described as follows: qPCR of resistance-related genes, MDA-GSC17. It counts as cell-based, Human. The conditions noted are these: MDA-GSC17 (sensitive). The procedure:
as §3

The structures appear in SMILES notation. A value given as a limit tells only on which side of the number the result lay.

In the case of `c1ccc([C@@H]2C[C@H]2NC2CCNCC2)cc1` [GSK-LSD1], the IC50 in the assay with MDA-GSC 262 is greater than 750 µM; with MDA-GSC 20, greater than 750 µM; in the assay on MDA-GSC 17, 253 µM; in the assay on MDA-GSC 6–27, 598 µM; in the assay on MDA-GSC 7–11, 606 µM; in the assay with MDA-GSC 23, greater than 750 µM. Further, the IC50 in the assay with MDA-GSC 7–2 is 518 µM. Further, the “effect on MDA-GSC proliferation” value in the assay on MDA-GSC lines is listed as “Consistent anti-proliferative effects”. Also, in [1] (1 mg/kg intraperitoneal, week 11, vs control mice), the “rate of tumor progression” value is on record as “lower rate of tumor progression”. Also, the “tumor burden (bioluminescence)” value in assay [1] (1 mg/kg intraperitoneal, week seven, vs control) is on record as “strong regression in tumor burden”. The overall survival result in assay [1] (continued dosing beyond week 11) was “ineffective to improve overall survival”. The entries for the “expression of resistance-related genes (FTH1, RAB39B, HKDC1, FAM213A)” value in the assay on MDA-GSC20 and in the assay with MDA-GSC7-2 were “increase in all four genes” and “inappreciable effects”, respectively. The “expression of resistance-related genes” value with MDA-GSC8-11 is “increase in the same two gene”; with MDA-GSC17, “not”.

In general, IC50 refers to the concentration that gives 50% inhibition.

The values are drawn from publication PMC10111022, “Comparison of pharmacological inhibitors of lysine-specific demethylase 1 in glioblastoma stem cells reveals inhibitor-specific efficacy profiles” (Frontiers in Neurology, 2023).
